Test system: NPY Y2 receptor
Assay: Hyperoxia/ischemia-induced retinal neovascularization (retinopathy) in newborn rats, fluorescent dextran flat-mount vessel count
Assay type: in vivo, rat (Sprague Dawley)
Conditions: for Retinal capillary vessel formation in fluorescein images: fluorescence microscopy of flat-mounted retinas, FIG. 3; for Quantitated neovascularization (amount of retinal vessels crossed by a constant length line), Mean ± SD / Quantitated neovascularization, Range: newborn rats, intraperitoneal treatment, retinas at age of 20 days; for Quantitated neovascularization (amount of retinal vessels crossed by a constant length line), Mean ± SD: cyclic hyperoxia 40%/80%; for Quantitated neovascularization, Range: cyclic hyperoxia; for Development of retinopathy: treated groups of rat puppies
Text: The present study was undertaken to determine the impact of NPY Y2 receptor targeted intervention on neovascularization and development of retinopathy. Development of retinopathy was induced to newborn rats by cyclic hyperoxia and following relative ischemia-induced retinal neovascularization. Hyperoxemia is toxic to developing retinal vessels causing damage and hypoxia in the retina. After moving to normal air, relative hypoxia follows further promoting neovascularization of the retina.
Three groups of rat puppies were subjected for different treatments; 1) vehicle, 2) NPY Y2 receptor targeted antisense oligonucleotide sequence, and 3) scramble oligonucleotide sequence containing the same oligonucleotides as NPY Y2 receptor targeted antisense oligonucleotide sequence. The treatments were administered intraperitoneally. The retinal vessels were investigated and retinopathic changes were compared between treatment groups.
Retinopathy was assessed after injection of fluorescent-labelled dextran to the circulation. The eyes were flat-mounted on slides and the retinal vessels were visualized and investigated by fluorescence microscopy. Statistical differences were calculated between the study groups.
Study protocol was approved by the Joint Ethics Committee of Turku University. Development of retinopathy was induced to newborn rats (Sprague Dawley) by cyclic hyperoxia and following relative ischemia. Hyperoxia is toxic to developing retinal vessels causing damage and hypoxia in the retina, which induces neovascularization. After moving to normal air, relative hypoxia follows further promoting neovascularization of the retina. Hypoxia is one of the major causes of retinal neovascularization in human retinopathies also. The newborn rats were kept in a hyperoxic incubator with their mothers. Retinal neovascularization was induced simultaneously for all three groups of puppies. One treatment group consisted originally of 7 puppies, which underwent cyclic hyperoxia at the age of 3 days, continued until at the age of 14 days and remained in normal room air from the age of 14 to 17 days. The amount of oxygen inside the incubator was kept at 40% and 80% in 12 hour cycles for 10 days (days from 3 to 13).
The three groups of puppies were subjected for different treatments; 1) plain vehicle, 2) NPY Y2 receptor targeted antisense oligodeoxynucleotide sequence (5′-CCTCTGCACCTAATGGGCCC-3′ (SEQ ID NO:4), containing 20 thioate modified bases) diluted in vehicle and 3) scramble oligodeoxynucleotide sequence containing the same deoxynucleotides as NPY Y2 receptor targeted antisense oligodeoxynucleotide sequence but in a random order (5′-CCATGGTAATCCGCCGCTCC-3′ (SEQ ID NO:5), containing 20 thioate modified bases) diluted in vehicle. The treatments were administered intraperitoneally. The retinal vessels were investigated and retinopathic changes were compared between treatment groups. The used NPY Y2 receptor targeted antisense deoxynucleotide sequence was designed complementary to next 20 bases from NPY Y2 gene transcription initiation codon (ATG).
At the age of 20 days, rats were decapitated and eyes were collected. Retinopathy and retinal neovascularization was assessed after an injection of fluorescent-labelled dextran to the circulation trough heart puncture. One eye from each puppy was used for visualization of retinal vessels. The eyes were flat-mounted on slides and the retinal vessels were visualized and investigated by fluorescence microscopy. Pictures of retinas were acquired using a Leica DMR/DC 100 microscope and Leica DC Wiever software.
The amount of retinal capillaries was analyzed by counting the amount of vessels crossed by a constant length line using plot profile analysis (Image-J 2.6 program). Each retina was analyzed in 3-5 representative areas and the mean values were used for further statistical analysis. Only unfolded retinal preparations were used in order to avoid artificial images of neovascularization. […]

[1] = post hoc analysis, less neovascularization

Row | Substance | Retinal capillary vessel formation in fluorescein images | Quantitated neovascularization (amount of retinal vessels crossed by a constant length line), Mean ± SD | Quantitated neovascularization, Range | Difference in retinal neovascularization versus vehicle treatment group (post hoc analysis) | Development of retinopathy | 95% confidence interval for the difference compared to scramble treatment group (post hoc analysis) | 95% confidence interval for the difference compared to vehicle treatment group (post hoc analysis) | Mean difference in neovascularization compared to scramble treatment group [1] | Mean difference in neovascularization compared to vehicle treatment group [1]
1 | 5′-CCATGGTAATCCGCCGCTCC-3′ (CCATGGTAATCCGCCGCTCC; DNA, all phosphorothioate, methylation of C not given here) [Scramble, reference compound] | irregular and disrupted | 31.12 ± 0.93 | 30.33-32.25 | no difference | evident | – | – | – | –
2 | 5′-CCTCTGCACCTAATGGGCCC-3′ (antisense CCTCTGCACCTAATGGGCCC; DNA, all phosphorothioate, methylation of C not given here) [Y2-antisense, NPY Y2 receptor targeted antisense oligodeoxynucleotide, complementary to rat NPY Y2 mRNA, next 20 bases from initiation codon] | regular and continuous | 24.58 ± 0.84 | 23.75-25.75 | – | prevented | 3.76-9.31 | 2.48-8.33 | 6.53 | 5.40

Reference: patent US20040006004A1, “Method for prevention and treatment of diseases or disorders related to excessive formation of vascular tissue or blood vessels” (priority 2002, published 2004)
